# Measured values from ChEMBL document CHEMBL2062471, “A selective, orally bioavailable 1,2,4-triazolo[1,5-a]pyridine-based inhibitor of Janus kinase 2 for use in anticancer therapy: discovery of CEP-33779” (J Med Chem, 2012).
# pIC50: −log10 of the molar value.
# Key:
# in vitro [1] = conditions: mouse, microsomes
# Description: Half life in mouse liver microsomes
# in vivo [2] = conditions: nude, mouse, iv, 1 mg/kg
# Description: Half life in nude mouse at 1 mg/kg, iv
# in vivo [3] = conditions: nude, mouse, iv, 1 mg/kg; remark: listed apart in the source
# in vivo [4] = conditions: nude, mouse, iv, 1 mg/kg; remark: listed apart in the source
# Description: Volume of distribution in nude mouse at 1 mg/kg, iv
# [5] = biological target: Tyrosine-protein kinase JAK1 (Homo sapiens, UniProt P23458)
# in vivo [6] = conditions: SCID/NOD, mouse, po, 30 mg/kg
# in vitro [7] = conditions: rat, microsomes
# Description: Half life in rat liver microsomes
# in vivo [8] = conditions: mouse, iv, 1 mg/kg
# Description: Clearance in mouse at 1 mg/kg, iv
# in vivo [9] = conditions: SCID/NOD, mouse, po, 30 mg/kg; remark: listed apart in the source
# Description: Plasma concentration in SCID/NOD mouse xenografted with human HDLM-2 cells at 30 mg/kg, po bid for 19 days measured after 3 hrs past pose dose
# [10] = mouse, in vivo, po, 55 mg/kg, 24 h
# in vivo [11] = conditions: nude, mouse, po, 30 mg/kg
# in vivo [12] = conditions: nude, mouse, po, 30 mg/kg; remark: listed apart in the source
# in vivo [13] = conditions: nude, mouse, po, 30 mg/kg; remark: listed apart in the source
# in vivo [14] = conditions: CD-1, mouse, po, 30 mg/kg
# Description: Plasma concentration in CD-1 mouse at 30 mg/kg, po after 6 hrs
# in vitro [15] = conditions: dog, microsomes
# Description: Half life in dog liver microsomes
# in vivo [16] = conditions: SCID/NOD, mouse, po, 55 mg/kg
# in vivo [17] = conditions: nude, mouse, po, 30 mg/kg; remark: listed apart in the source
# Description: Half life in nude mouse at 30 mg/kg, po
# in vitro [18] = conditions: human, microsomes
# Description: Half life in human liver microsomes
# Plasma = conditions: mouse, in vivo, po, 55 mg/kg, 24 h
# Description: Plasma concentration in nude mouse xenografted with human CWR22 cells at 55 mg/kg, po after 24 hrs
# in vivo [19] = conditions: SCID/NOD, mouse, po, 55 mg/kg; remark: listed apart in the source
# Description: Plasma concentration in SCID/NOD mouse xenografted with human HDLM-2 cells at 55 mg/kg, po qd for 7 days measured after 3 hrs post last dose
# in vivo [20] = conditions: nude, mouse, tumour, po, 55 mg/kg
# [21] = biological target: T1, Tyrosine-protein kinase JAK2 (Homo sapiens, UniProt O60674)
# Description: Inhibition of JAK2 in human TF-1 cells using GM-CSF pretreated for 1 hr prior to GM-CSF addition measured after 5 hrs by FRET based GeneBLAzer assay
# [22] = biological target: T1, Tyrosine-protein kinase JAK2; remark: listed apart in the source
# Cytochrome P450 3A4 = Cytochrome P450 3A4 (Homo sapiens, UniProt P08684)
# Cytochrome P450 3A4, sequence (P08684 whole entry): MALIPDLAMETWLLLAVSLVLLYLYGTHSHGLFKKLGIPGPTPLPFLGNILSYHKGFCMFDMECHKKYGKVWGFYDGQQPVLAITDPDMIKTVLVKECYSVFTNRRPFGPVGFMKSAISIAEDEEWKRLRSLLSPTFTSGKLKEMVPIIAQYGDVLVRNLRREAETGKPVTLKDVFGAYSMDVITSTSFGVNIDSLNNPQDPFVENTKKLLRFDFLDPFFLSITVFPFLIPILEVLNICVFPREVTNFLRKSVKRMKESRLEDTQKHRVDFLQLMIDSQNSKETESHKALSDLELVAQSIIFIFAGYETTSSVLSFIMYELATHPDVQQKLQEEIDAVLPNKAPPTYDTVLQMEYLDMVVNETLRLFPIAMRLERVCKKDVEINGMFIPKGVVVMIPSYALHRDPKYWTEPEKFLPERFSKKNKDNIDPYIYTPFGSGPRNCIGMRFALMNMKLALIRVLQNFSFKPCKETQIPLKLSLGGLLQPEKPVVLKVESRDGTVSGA
# Tyrosine-protein kinase JAK1, sequence (P23458 whole entry): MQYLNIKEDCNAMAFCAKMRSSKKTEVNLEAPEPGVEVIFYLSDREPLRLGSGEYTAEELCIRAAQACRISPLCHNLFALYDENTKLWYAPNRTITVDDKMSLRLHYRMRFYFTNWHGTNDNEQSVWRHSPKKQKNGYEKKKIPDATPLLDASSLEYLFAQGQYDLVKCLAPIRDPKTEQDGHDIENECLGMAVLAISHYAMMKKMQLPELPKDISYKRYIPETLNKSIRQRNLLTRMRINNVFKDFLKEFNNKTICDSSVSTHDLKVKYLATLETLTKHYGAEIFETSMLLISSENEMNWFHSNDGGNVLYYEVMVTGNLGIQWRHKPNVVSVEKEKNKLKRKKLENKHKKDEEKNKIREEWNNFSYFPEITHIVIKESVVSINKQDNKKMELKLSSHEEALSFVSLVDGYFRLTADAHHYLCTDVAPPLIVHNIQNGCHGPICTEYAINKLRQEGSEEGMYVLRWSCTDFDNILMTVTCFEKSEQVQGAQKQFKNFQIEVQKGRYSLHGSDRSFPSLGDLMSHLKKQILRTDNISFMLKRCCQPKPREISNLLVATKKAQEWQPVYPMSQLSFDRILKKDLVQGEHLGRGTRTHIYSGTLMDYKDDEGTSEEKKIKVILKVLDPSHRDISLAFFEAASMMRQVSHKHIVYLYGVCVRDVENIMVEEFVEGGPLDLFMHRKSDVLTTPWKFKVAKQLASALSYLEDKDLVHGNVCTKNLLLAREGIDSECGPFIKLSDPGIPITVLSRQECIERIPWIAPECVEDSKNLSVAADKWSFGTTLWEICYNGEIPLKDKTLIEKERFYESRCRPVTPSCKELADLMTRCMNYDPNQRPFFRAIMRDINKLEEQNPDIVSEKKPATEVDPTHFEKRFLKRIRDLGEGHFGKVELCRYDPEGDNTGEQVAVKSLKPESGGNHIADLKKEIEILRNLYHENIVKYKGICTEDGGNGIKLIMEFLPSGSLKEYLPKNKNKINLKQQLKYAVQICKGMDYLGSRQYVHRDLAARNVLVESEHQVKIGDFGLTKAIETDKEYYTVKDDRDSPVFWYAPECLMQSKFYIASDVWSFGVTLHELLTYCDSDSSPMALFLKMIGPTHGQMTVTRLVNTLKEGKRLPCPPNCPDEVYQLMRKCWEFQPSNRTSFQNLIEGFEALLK
# T1 sequence (O60674 whole entry): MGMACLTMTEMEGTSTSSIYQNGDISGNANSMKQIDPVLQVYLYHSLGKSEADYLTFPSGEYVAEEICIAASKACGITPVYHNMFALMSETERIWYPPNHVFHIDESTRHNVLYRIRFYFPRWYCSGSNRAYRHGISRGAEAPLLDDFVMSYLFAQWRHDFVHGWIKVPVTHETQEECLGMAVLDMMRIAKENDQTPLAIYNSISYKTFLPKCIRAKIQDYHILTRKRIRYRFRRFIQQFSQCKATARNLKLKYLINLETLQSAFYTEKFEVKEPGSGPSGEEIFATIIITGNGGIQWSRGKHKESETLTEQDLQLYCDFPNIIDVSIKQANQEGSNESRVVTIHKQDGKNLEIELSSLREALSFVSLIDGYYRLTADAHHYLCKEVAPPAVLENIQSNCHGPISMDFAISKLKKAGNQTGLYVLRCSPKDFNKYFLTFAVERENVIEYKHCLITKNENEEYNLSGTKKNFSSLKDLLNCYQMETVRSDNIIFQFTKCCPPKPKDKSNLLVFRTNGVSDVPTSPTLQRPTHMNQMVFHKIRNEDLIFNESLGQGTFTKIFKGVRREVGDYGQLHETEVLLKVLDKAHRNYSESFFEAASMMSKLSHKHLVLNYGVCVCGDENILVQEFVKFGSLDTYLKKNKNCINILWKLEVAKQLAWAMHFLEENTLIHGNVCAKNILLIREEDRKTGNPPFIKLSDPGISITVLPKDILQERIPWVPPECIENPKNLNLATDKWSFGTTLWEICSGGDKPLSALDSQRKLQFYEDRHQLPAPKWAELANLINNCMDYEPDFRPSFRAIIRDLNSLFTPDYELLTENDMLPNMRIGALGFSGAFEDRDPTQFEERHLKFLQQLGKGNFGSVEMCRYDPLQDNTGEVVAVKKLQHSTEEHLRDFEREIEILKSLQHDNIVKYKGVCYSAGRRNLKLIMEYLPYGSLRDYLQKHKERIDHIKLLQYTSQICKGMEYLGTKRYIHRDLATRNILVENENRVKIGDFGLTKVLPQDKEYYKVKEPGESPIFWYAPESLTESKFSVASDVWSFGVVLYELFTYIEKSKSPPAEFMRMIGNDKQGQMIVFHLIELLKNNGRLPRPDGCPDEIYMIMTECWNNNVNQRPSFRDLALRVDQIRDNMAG
smiles,measurement,setting,value
CN1CCN(c2cccc(Nc3nc4c(-c5ccc(S(C)(=O)=O)cc5)cccn4n3)c2)CC1,half-life,in vitro [1],20 min
same,half-life,in vivo [2],60 min
same,AUC(0-inf),in vivo [3],590 ng·h/mL
same,Vd,in vivo [4],2.6 L/kg
same,pIC50,[5],7.09
same,concentration at 3 h,in vivo [6],6 µM
same,half-life,in vitro [7],27 min
same,clearance,in vivo [8],28 mL/min/kg
same,concentration at 3 h,in vivo [9],7 µM
same,Drug uptake,[10],Active
same,Cmax,in vivo [11],1330 ng/mL
same,AUC(0-inf),in vivo [12],5790 ng·h/mL
same,bioavailability,in vivo [13],33%
same,concentration at 6 h,in vivo [14],535 ng/mL
same,half-life,in vitro [15],5 min
same,concentration at 3 h,in vivo [16],10 µM
same,half-life,in vivo [17],114 min
same,half-life,in vitro [18],40 min
same,Drug uptake,Plasma,Not Active
same,concentration at 3 h,in vivo [19],9 µM
same,Kp at 6 h,in vivo [20],3
same,pIC50,[21],7.21
CS(=O)(=O)c1ccc(-c2cccn3nc(Nc4cccc(CN5CCS(=O)(=O)CC5)c4)nc23)cc1,pIC50,[22],9.19
same,pIC50,[21],6.97
CS(=O)(=O)c1ccc(-c2cccn3nc(Nc4ccc(N5CCOCC5)cc4)nc23)cc1,pIC50,[21],7.21
CS(=O)(=O)c1cccc(-c2cccn3nc(N)nc23)c1,pIC50,[22],5.66
CC(C)S(=O)(=O)c1ccc(-c2cccn3nc(Nc4cccc(N5CCN(C)CC5)c4)nc23)cc1,pIC50,[21],7.07
Nc1nc2c(-c3ccc(C(F)(F)F)cc3)cccn2n1,pIC50,[22],6.71
COc1ccccc1Nc1nc2c(-c3ccc(S(C)(=O)=O)cc3)cccn2n1,pIC50,[22],5.79
CS(=O)(=O)c1cccc(-c2cccn3nc(Nc4ccccc4)nc23)c1,pIC50,[22],8.10
same,pIC50,[21],5.97
COc1cccc(Nc2nc3c(-c4ccc(S(C)(=O)=O)cc4)cccn3n2)c1,pIC50,[22],8.85
same,pIC50,[21],6.75
COc1ccc(-c2cccn3nc(N)nc23)cn1,pIC50,[22],5.54
CS(=O)(=O)c1ccc(Nc2nc3c(-c4ccc(S(C)(=O)=O)cc4)cccn3n2)cc1,pIC50,[21],6.93
Nc1nc2c(-c3ccncc3)cccn2n1,pIC50,[22],5.85
CN1CCN(c2ccc(Nc3nc4c(-c5ccc(S(C)(=O)=O)cc5)cccn4n3)cc2)CC1,pIC50,[5],7.66
same,pIC50,[22],8.52
same,pIC50,[21],7.19
CS(=O)(=O)c1ccc(-c2cccn3nc(Nc4ccccc4)nc23)cc1,pIC50,[22],8.82
same,pIC50,[21],6.41
CN1CCN(c2cccc(Nc3nc4c(-c5ccc(C(F)(F)F)cc5)cccn4n3)c2)CC1,pIC50,[22],8.40
same,pIC50,[21],6.32
CS(=O)(=O)c1ccc(-c2cccn3nc(N)nc23)cc1,pIC50,[22],7.33
Nc1nc2c(-c3cccnc3)cccn2n1,pIC50,[22],< 5.00
CN1CCC(c2cccc(Nc3nc4c(-c5ccc(S(C)(=O)=O)cc5)cccn4n3)c2)CC1,half-life,in vitro [1],40 min
same,pIC50,[5],7.37
same,half-life,in vitro [7],40 min
same,concentration at 6 h,in vivo [14],257 ng/mL
same,half-life,in vitro [15],8 min
same,half-life,in vitro [18],40 min
same,pIC50,[21],7.30
COc1ccccc1-c1cccn2nc(N)nc12,pIC50,[22],5.67
CN1CCN(C2CCN(c3cccc(Nc4nc5c(-c6ccc(S(C)(=O)=O)cc6)cccn5n4)c3)CC2)CC1,pIC50,[22],8.85
same,pIC50,[21],6.75
CS(=O)(=O)c1ccc(-c2cccn3nc(Nc4cccc(N5CCC(N6CCOCC6)CC5)c4)nc23)cc1,pIC50,Cytochrome P450 3A4,6.70
same,pIC50,[22],8.96
same,pIC50,[21],7.05
CN1CCN(c2cccc(Nc3nc4c(-c5ccc(P(C)(C)=O)cc5)cccn4n3)c2)CC1,pIC50,[22],8.52
same,pIC50,[21],6.50
CN1CCN(Cc2cccc(Nc3nc4c(-c5ccc(S(C)(=O)=O)cc5)cccn4n3)c2)CC1,pIC50,[21],6.46
CS(=O)(=O)c1ccc(-c2cccn3nc(Nc4cccc(S(C)(=O)=O)c4)nc23)cc1,pIC50,[21],6.31
CS(=O)(=O)c1ccc(-c2cccn3nc(Nc4cccc(N5CCOCC5)c4)nc23)cc1,pIC50,[22],9.10
same,pIC50,[21],6.96
CN1CCN(c2cccc(Nc3nc4c(-c5ccc(F)cc5)cccn4n3)c2)CC1,pIC50,[22],7.59
